Laboratory results from US20110098326A1, “2-FLUOROTHIAZOLE DERIVATIVES USEFUL AS IMAGING AGENTS; METHODS OF SYNTHESIS, AND METHODS OF USE” (priority 2009, published 2011).
pKi: −log10 of the molar value. Where two headings read alike, the source gives them in different places.

Experiments:
mGluR5 receptors = biological target: T1, mGluR5 receptors (Homo sapiens, UniProt P41594); test: In vitro binding to glutamate receptors ([^3H]MPEP displacement, membranes of transfected cell lines); conditions: mGluR5, radioligand [^3H]MPEP
T1 construct: expressed in transfected cells; host or cells: transiently or stably transfected cell lines (e.g., HEK293, COS, CHO, NIH3T3)
Method: The assay buffer is Standard Binding Buffer (50 mM Tris-HCl, 10 mM MgCl2, 0.1 mM EDTA, pH 7.4) and the membrane fraction source is transiently or stably transfected cell lines (e.g., HEK293, COS, CHO, NIH3T3)
Aliquots (50 μL) of radioligand are dispensed into the wells of a 96-well plate containing 100 μl of Standard Binding Buffer. Then, duplicate 50-μL aliquots of the test and reference compound dilutions are added.
The 250-4, reactions are incubated at room temperature and shielded from light (to prevent photolysis of light-sensitive ligands) for 1 hour, then harvested by rapid filtration onto Whatman GF/B glass fiber filters pre-soaked with 0.3% polyethyleneimine using a 96-well Brandel harvester. Four rapid 500-μL washes are performed with chilled Standard Binding Buffer to reduce non-specific binding. Filters are placed in 6-mL scintillation tubes and allowed to dry overnight. The next day, 4 mL of EcoScint scintillation cocktail (National Diagnostics) are added to each tube. The tubes are capped, labeled, and counted by liquid scintillation counting. […] The filter mats are dried, then scintillant is melted onto the filters and the radioactivity retained on the filters is counted in a Microbeta scintillation counter.
Raw data (dpm) representing total radioligand binding (i.e., specific+non-specific binding) are plotted as a function of the logarithm of the molar concentration of the competitor (i.e., test or reference compound).
Ki=IC50/(1+[ligand]/KD) (Eqn. 2)
where [ligand] equals the assay radioligand concentration and KD equals the affinity constant of the radioligand for the target receptor.

[1] = monkey; cited from earlier work
[2] = rat; cited from earlier work
[3] = human subjects; cited from earlier work

T1 sequence (P41594 21-1212): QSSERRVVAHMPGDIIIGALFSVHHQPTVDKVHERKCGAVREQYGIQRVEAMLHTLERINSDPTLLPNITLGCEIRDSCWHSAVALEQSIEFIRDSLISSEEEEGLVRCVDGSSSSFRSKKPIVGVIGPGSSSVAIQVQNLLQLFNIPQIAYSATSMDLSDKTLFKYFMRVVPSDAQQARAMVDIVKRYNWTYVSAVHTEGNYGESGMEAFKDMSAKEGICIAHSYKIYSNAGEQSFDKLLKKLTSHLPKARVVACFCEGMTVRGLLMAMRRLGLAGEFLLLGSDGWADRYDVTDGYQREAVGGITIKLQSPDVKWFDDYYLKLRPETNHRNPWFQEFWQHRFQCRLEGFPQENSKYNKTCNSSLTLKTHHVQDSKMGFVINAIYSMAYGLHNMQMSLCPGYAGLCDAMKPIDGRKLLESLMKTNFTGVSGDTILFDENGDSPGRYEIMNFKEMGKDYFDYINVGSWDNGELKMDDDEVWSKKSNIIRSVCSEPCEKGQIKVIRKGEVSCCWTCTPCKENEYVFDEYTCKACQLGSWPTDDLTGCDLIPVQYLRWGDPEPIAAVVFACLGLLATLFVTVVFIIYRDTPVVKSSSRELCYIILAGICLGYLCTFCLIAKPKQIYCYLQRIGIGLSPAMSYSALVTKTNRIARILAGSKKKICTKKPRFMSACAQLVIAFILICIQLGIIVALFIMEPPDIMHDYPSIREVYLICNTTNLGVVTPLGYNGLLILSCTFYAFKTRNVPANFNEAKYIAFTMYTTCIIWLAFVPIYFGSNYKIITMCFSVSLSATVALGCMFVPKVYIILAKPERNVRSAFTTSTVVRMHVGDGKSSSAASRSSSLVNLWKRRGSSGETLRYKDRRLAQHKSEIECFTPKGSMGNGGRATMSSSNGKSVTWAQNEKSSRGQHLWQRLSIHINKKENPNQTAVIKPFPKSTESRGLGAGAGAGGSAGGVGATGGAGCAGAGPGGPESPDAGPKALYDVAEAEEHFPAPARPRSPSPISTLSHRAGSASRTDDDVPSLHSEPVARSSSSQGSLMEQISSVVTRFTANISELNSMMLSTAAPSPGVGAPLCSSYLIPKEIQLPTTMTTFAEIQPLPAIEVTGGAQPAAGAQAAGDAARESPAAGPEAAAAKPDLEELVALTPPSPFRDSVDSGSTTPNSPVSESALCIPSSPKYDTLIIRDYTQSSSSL

COc1cccc(C#Cc2csc(F)n2)c1 [Compound 15]
pKi (mGluR5 receptors): > 7.30

N#Cc1cccc(C#Cc2csc(F)n2)c1 [Compound 13, (5-((2-fluorothiazol-4-yl)ethynyl)benzonitrile)]
pKi (mGluR5 receptors): > 7.30

Fc1nc(C#Cc2ccccc2)cs1 [Compound 12, 2-fluoro-4-(phenylethynyl)thiazole]
pKi (mGluR5 receptors): > 6.82

N#Cc1cc(F)cc(C#Cc2csc(F)n2)c1 [Compound 14, 3-fluoro-5-((2-fluorothiazol-4-yl)ethynyl)benzonitrile]
pKi (mGluR5 receptors): > 7.30

N#CCc1cccc(C#Cc2csc(F)n2)c1 [Compound 16]
pKi (mGluR5 receptors): > 7.30

N#Cc1cc(F)cc(C#Cc2csc(C[18F])n2)c1 [[^18F]SP203, 3-fluoro-5-[[2-([^18F]fluoromethyl)thiazol-4-yl]ethynyl]benzonitrile]
defluorination [1]: rapidly defluorinated | defluorination [2]: rapidly defluorinated | defluorination [3]: slower or negligible
